Earlier results as cited in US20170003257A1, “WETNESS INDICATOR WITH TWO COLORANTS AND TWO STABILIZERS” (The Procter & Gamble Company, priority 2015, published 2017).
Read-outs that look alike come from different tables or passages of the source.

Legend:
[1] = Table 2 stabilizers; for pKa (1): first pKa; for pKa (2): second pKa; for pKa (3): third pKa

| pKa (1) [1] | pKa (2) [1] | Structure (SMILES) | other results |
| --- | --- | --- | --- |
| 11.9 | 10.8 | NCCCCCCN [Hexamethylenediamine] |  |
|  |  | Cc1cc(O)c(C(C)C)cc1C1(c2cc(C(C)C)c(O)cc2C)OC(=O)c2ccccc21 [Thymolphthalein] | pKa (Table 1 colorants): 9.8 |
| 1.8 | 4.4 | NC(C(=O)O)c1ccccc1 (stereo not shown) [Phenylglycine] |  |
| −0.21 | 1.5 | O=C(O)CN(CCN(CC(=O)O)CC(=O)O)CC(=O)O [Ethylenediaminetetraacetic acid (EDTA), Ethylenediaminetetraacetic acid] | pKa (5) ([1]; fifth pKa): 6.7; pKa (4) ([1]; fourth pKa): 3.1; pKa (3) [1]: 2.2 |
|  |  | CC[N+](CC)=c1ccc2nc3c(cc(N)c4ccccc43)oc-2c1 [Nile Blue] | pKa (Table 1 colorants): 9.7 |
| 5.0 |  | O=C(O)c1ccncc1 [4-Pyridinecarboxylic acid] |  |
| 3.2 |  | O=CC(=O)O [Glyoxylic acid] |  |
| 3.9 |  | O=c1[nH]c(=O)c2[nH]c(=O)[nH]c2[nH]1 [Uric acid] |  |
| 3.9 |  | Cc1ccccc1C(=O)O [o-Toluic acid] |  |
|  | 11.8 | O=C1O[C@H]([C@@H](O)CO)C(O)=C1O [Ascorbic acid] |  |
| 3.5 |  | O=C(O)C(O)CO (stereo not shown) [Glyceric acid] |  |
| 6.8 |  | NCCN [Ethylenediamine] |  |
|  |  | CN(C)c1ccc(C(=C2C=CC(=[N+](C)C)C=C2)c2ccccc2)cc1 [Malachite Green] | pKa (Alkaline pH range): 12.8 |
|  |  | O=c1ccc2[n+]([O-])c3ccc(O)cc3oc-2c1 [Resazurin] | pKa (Table 1 colorants): 5.1 |
| 4.7 |  | O=C(O)CCCCCC(=O)O [Heptanedioic acid] |  |
| 9.4 | 12.8 | Oc1ccccc1O [Catechol] |  |
| 10.6 |  | CCCCCCN [Hexylamine] |  |
| 10.3 |  | Oc1ccc(O)cc1 [Hydroquinone] |  |

| pKa (1) [1] | pKa (2) [1] | Structure (SMILES) | other results |
| --- | --- | --- | --- |
| 1.8 |  | N=C(N)NCCC[C@H](N)C(=O)O [Arginine] |  |
|  | 9.3 | N[C@@H](Cc1ccccc1)C(=O)O [Phenylalanine] |  |
| 9.4 | 12.8 | Oc1ccccc1O [Pyrocatechol] |  |
| 10.7 |  | CCCCCCCN [Heptylamine] |  |
| 4.8 |  | CC(C)CCC(=O)O [4-Methylpentanoic acid] |  |
| 10.6 |  | CCCCCCCCCCN [Decylamine] |  |
| 9.3 | 11.1 | Oc1cccc(O)c1 [Resorcinol] |  |
| 1.1 | 5.2 | O=C(O)c1ccccn1 [Picolinic acid] |  |
| 9.8 | 10.5 | NCCc1ccc(O)cc1 [Tyramine] |  |
|  | 9.0 | N[C@@H](CO)C(=O)O [Serine] |  |
| 2.8 |  | O=C(O)c1cncc(C(=O)O)c1 [Dinicotinic acid] |  |
| 4.4 |  | Cc1ccc(C(=O)O)cc1 [p-Toluic acid] |  |
| 3.6 |  | CC(=O)CC(=O)O [Acetoacetic acid] |  |
| 9.3 | 12.7 | OB(O)O [Boric acid] | pKa (3) [1]: 13.8 |
| 10.7 | 12.0 | CC(=NO)C(C)=NO [Dimethylglyoxime] |  |
| 1.83 |  | C[N+](C)(C)CC(=O)O [Betaine] |  |
|  | 7.2 | O=S(O)O [Sulfurous acid] |  |
